The NIST ThermoML archive (doi:10.1021/je100300s)

Test: xn = mol fraction of the nth substance listed
Settings: 101 kPa, Liquid

CC(O)CN (centres undefined) [1-amino-2-propanol] + O
Settings	mass density [kg/m3]	viscosity [mPa·s]
298.15 K, x1 = 0.05	999.9	2.11
298.15 K, x1 = 0.07	1000.35	2.696
298.15 K, x1 = 0.0986	1002.43	3.902
298.15 K, x1 = 0.1993	1004.57	9.7
298.15 K, x1 = 0.3003	999.91	15.54
298.15 K, x1 = 0.3955	992.94	22.19
298.15 K, x1 = 0.4929	985.82	26.76
298.15 K, x1 = 0.5995	978.02	29.01
298.15 K, x1 = 0.7002	971.66	29.99
298.15 K, x1 = 0.8006	965.96	30.4
298.15 K, x1 = 0.8992	961.08	28.55
298.15 K, x1 = 1	956.51	26.68
303.15 K, x1 = 0.05	997.07	1.856
303.15 K, x1 = 0.07	998.1	2.282
303.15 K, x1 = 0.0986	999.83	3.248
303.15 K, x1 = 0.1993	1001.03	7.671
303.15 K, x1 = 0.3003	996.08	12.04
303.15 K, x1 = 0.3955	989.08	16.82
303.15 K, x1 = 0.4929	981.92	19.5
303.15 K, x1 = 0.5995	974.2	21.38
303.15 K, x1 = 0.7002	967.74	22.78
303.15 K, x1 = 0.8006	962.01	22.97
303.15 K, x1 = 0.8992	957.12	22.19
303.15 K, x1 = 1	952.52	20.31
313.15 K, x1 = 0.05	992.68	1.431
313.15 K, x1 = 0.07	993.09	1.785
313.15 K, x1 = 0.0986	994.25	2.359
313.15 K, x1 = 0.1993	993.72	5.102
313.15 K, x1 = 0.3003	988.29	7.551
313.15 K, x1 = 0.3955	981.19	9.95
313.15 K, x1 = 0.4929	973.92	11.79
313.15 K, x1 = 0.5995	966.3	12.85
313.15 K, x1 = 0.7002	959.83	13.14
313.15 K, x1 = 0.8006	954.01	13.56
313.15 K, x1 = 0.8992	949.12	12.83
313.15 K, x1 = 1	944.42	12.51
323.15 K, x1 = 0.05	987.66	1.136
323.15 K, x1 = 0.07	987.41	1.393
323.15 K, x1 = 0.0986	988.2	1.561
323.15 K, x1 = 0.1993	986.18	3.582
323.15 K, x1 = 0.3003	980.32	5.59
323.15 K, x1 = 0.3955	973.13	6.649
323.15 K, x1 = 0.4929	965.84	7.64
323.15 K, x1 = 0.5995	958.38	7.994
323.15 K, x1 = 0.7002	951.77	8.473
323.15 K, x1 = 0.8006	945.87	8.748
323.15 K, x1 = 0.8992	940.96	8.041
323.15 K, x1 = 1	936.19	7.543
333.15 K, x1 = 0.05	982.03	0.929
333.15 K, x1 = 0.07	981.49	1.118
333.15 K, x1 = 0.0986	981.57	1.222
333.15 K, x1 = 0.1993	978.5	2.627
333.15 K, x1 = 0.3003	972.15	3.944
333.15 K, x1 = 0.3955	964.88	4.988
333.15 K, x1 = 0.4929	957.68	5.701
333.15 K, x1 = 0.5995	950.15	6.163
333.15 K, x1 = 0.7002	943.53	5.753
333.15 K, x1 = 0.8006	937.62	6.023
333.15 K, x1 = 0.8992	932.66	5.483
333.15 K, x1 = 1	927.84	5.22
343.15 K, x1 = 0.05	975.62	0.775
343.15 K, x1 = 0.07	974.99	0.922
343.15 K, x1 = 0.0986	973.44	0.993
343.15 K, x1 = 0.1993	970.55	2.088
343.15 K, x1 = 0.3003	963.77	2.904
343.15 K, x1 = 0.3955	956.45	3.619
343.15 K, x1 = 0.4929	949.25	4.075
343.15 K, x1 = 0.5995	941.71	4.371
343.15 K, x1 = 0.7002	935.09	4.565
343.15 K, x1 = 0.8006	929.19	4.467
343.15 K, x1 = 0.8992	924.2	3.927
343.15 K, x1 = 1	919.37	3.77
